{"source": "patent US20040009939A1", "about": "“Methods of enhancing immune induction involving MDA-7” (Board of Regent, The University of Texas System, priority 2002, published 2004)", "type_in_all_cases": "cell-based, human", "key": {"H1299 and A549 cells": {"system": "H1299 and A549 cells", "experiment": "Mitochondrial membrane potential (TMRE) and apoptosis", "details": "Staurosporine 1 μM", "description": "(§1) Apoptotic cells were measured by propidium iodide staining and FACS analysis. Cells were harvested, pelleted by centrifugation and resuspended in phosphate-buffered saline (PBS) containing 50 μg/ml propidium iodide, 0.1% Triton X-100, and 0.1% sodium citrate. Samples were stored at 4° C. for 16 hours and vortexed prior to FACS analysis (Becton-Dickenson FACScan, Mountain View, Calif.; FL-3 channel). Cellular viability was assessed with the XTT assay by growing cells in 96-well plates in 100 μl volume/well. On day one, cells were transduced with Ad-mda-7, Ad-p53 or control vectors. On day two, the cells were incubated with the tetrazolium salt XTT for 4 to 24 hours according to the Roche protocol (Roche Diagnostics, Mannheim, Germany). Viability was assessed spectrophotometrically on an enzyme-linked immunosorbent assay (ELISA) plate reader.\nThe potential-sensitive fluorochrome tetramethylrhodamine, ethylester, perchlorate (TMRE) (Molecular Probes, Eugene, Oreg.) was used to measure ΔΨm. Cells were incubated with 25 nM TMRE for 30 minutes at 37° C. in the dark, washed in PBS, and analyzed by FACS on the FL-2 channel (FACScan: Becton Dickinson, Mountain View, Calif.)."}, "PKR": {"system": "PKR", "experiment": "Immunoblot and confocal analysis of PKR, PKR substrates and caspases", "details": "A549; immunoprecipitation; 10 mM 2-AP", "description": "Forty-eight hours after transfection, cell extracts were prepared for immunoblot assays as previously described (Pataer et al, 2000). The following antibodies were used: Bc1-2, Bak, Bax, PKR (K-17), eIF-2α, β-actin, p38 (A-12), phosphospecific p38 (D-8), stat1 (C-136), phosphospecific stat1 (A-2), stat3 (F-2), phosphospecific stat3 (B-7), anti-Tyk2 (C-20) and phosphospecific anti-Tyk (PY-99) (Santa Cruz Biotechnology, Santa Cruz, Calif.); Caspase 3, caspase-9, caspase-8 and Bid (PharMingen , San Diego, Calif.) and the phosphospecific PKR [pT451] and eIF-2a [pS51] (BioSource International, Camarillo, Calif.). The polyclonal and monoclonal antibodies to MDA-7 were obtained from Introgen Therapeutics, Inc. (Houston, Tex.).\n4×10^5 cells/well were grown on chamber slides overnight and infected with Ad-mda7, Ad-Luc or PBS. 48 hrs later cells were washed with PBS and fixed overnight in 4% paraformaldehyde. Cells were then permeabilized for 20 min at 4° C. with 0.2% triton-X10O and blocked with 5% normal horse serum and 1% normal goat serum. Rabbit polyclonal anti-MDA7 and mouse monoclonal anti-PKR(B-10) were incubated overnight at 4° C. and developed with Rhodamine or FITC goat anti-rabbit IgG for 30-45 min at 37° C. Cells were then visualized under confocal microscopy."}, "[1]": {"system": "A549 (wt p53), H1299 (null p53), and H322J (mutant p53) lung cancer cells", "experiment": "Apoptosis by propidium iodide staining and FACS in lung cancer cells", "details": "combination with 2-AP", "description": "(§2) Apoptotic cells by propidium iodide staining and FACS analysis were measured. Cells were harvested, pelleted by centrifugation and resuspended in phosphate-buffered saline containing 50 μg/ml propidium iodide, 0.1% Triton X-100, and 0.1% sodium citrate. Samples were stored at 4° C. for 16 hours and vortexed prior to FACS analysis (Becton-Dickenson FACScan, Mountain View, Calif.; FL-3 channel). Cellular viability was assessed with the XTT assay by growing cells in 96-well plates at 100 μL volume/well. After treatment with Ad-mda7 or control vectors, cells were incubated with the tetrazolium salt XTT according to the Roche protocol (Roche Diagnostics, Mannheim, Germany). Viability was assessed spectrophotometrically on an enzyme-linked immunosorbent assay (ELISA) plate reader.\nas §1, with “On day one, cells were transduced with Ad-mda-7, Ad-p53 or control vectors. On day two, the cells were incubated with the tetrazolium salt XTT for 4 to 24 hours according to the Roche protocol (Roche Diagnostics, Mannheim, Germany).” left out"}, "[2]": {"system": "eIF-2α protein synthesis inhibition", "experiment": "Measurement of cellular protein synthesis", "details": "with 2-AP", "description": "Cells were treated with Ad-mda7 or Ad-Luc for 48 hrs. Where indicated, cells were treated with 1 mM 2-AP for 48 hrs. Measurement of protein synthesis was performed as previously described (14). After treatment, approximately 1×10^6 cell equivalents were incubated with L-[U-^14C] amino acid mixture (Amersham, Piscataway, N.J.) at 2 μCi/ml for 10 min at 37° C. The reaction was terminated by the addition of 20% (wt/vol) trichloroacetic acid and the radioactivity in the acid-precipitable fraction was measured in a scintillation counter."}, "[3]": {"system": "A549 and H1299 lung cancer cell lines", "experiment": "XTT cellular viability assay", "details": "2-AP (10 mM) alone", "description": "as §2\nas §1, with “On day one, cells were transduced with Ad-mda-7, Ad-p53 or control vectors. On day two, the cells were incubated with the tetrazolium salt XTT for 4 to 24 hours according to the Roche protocol (Roche Diagnostics, Mannheim, Germany).” left out"}, "H1299 cells": {"system": "H1299 cells", "experiment": "MDA-7 secretion and trypan blue cytotoxicity with glycosylation and secretion inhibitors", "details": "for concentration that completely blocks secretion of MDA-7 protein: Ad-mda7 transduced H1299", "description": "Since glycosylated proteins generally acquire sugars during sorting through the ER and Golgi apparatus, the effect of glycosylation and secretion inhibitors on MDA-7 intracellular processing and subsequent secretion was evaluated. Tunicamycin inhibits the addition of sugars to proteins within the ER, while brefeldin A inhibits vesicle transport of proteins from the ER to the Golgi. Both disrupt the secretion of proteins. The cytotoxicity caused by Ad-mda7 in the presence of these glycosylation and secretion inhibitors was evaluated. Tunicamycin and brefeldin A levels were titrated until inhibition of secretion of MDA-7 protein could be detected. As shown in FIGS. 26A and 26B, treatment of H1299 cells with 2 μg/ml tunicamycin completely blocks secretion of MDA-7 protein, whereas less than 1 μg/ml of brefeldin A is required for this effect. Note that blocking secretion using either drug results in substantial intracellular accumulation of MDA-7 protein. […] The enhanced killing may be due to the tunicamycin sensitizing cells to apoptotic death. […] Therefore, secreted MDA-7 protein is unable to induce killing in cancer cells and is not required for Ad-mda7 mediated apoptosis and eventual killing of cancer cells (FIG. 32B)."}, "HUVEC and HMVEC cells": {"system": "HUVEC and HMVEC cells", "experiment": "Endothelial cell differentiation (tube formation) assay", "details": "HUVEC and HMVEC; 24 h", "description": "Endothelial cell differentiation (tube formation) assays were done using an in vitro angiogenesis assay kit (Chemicon, Temecula, Calif.). Briefly, HUVEC and HMVEC cells were grown to 80% confluency, collected, resuspended in growth medium and plated at a concentration of 2×10^4 cells/well in a 96-well plate coated with matrigel (Chemicon, Temecula, Calif.). To the wells, varying concentrations of MDA-7 protein were added and incubated for 24 h at 37° C. Wells that were not treated with MDA-7 protein served as a negative control. The ability of sMDA-7 to inhibit tube formation was determined and quantitated by counting the number of tubes under bright field microscopy. All samples were tested in duplicate. For comparative studies using MDA-7 and endostatin (Calbiochem), cells were plated as described above and exposed to varying concentration of the proteins. […] All other experimental procedures were the same as described above."}, "NF-κB": {"system": "NF-κB", "experiment": "NF-κB activation (electromobility shift assay)", "description": "Studies were conducted to determine whether transgenic MDA-7 expression results in NF-κB activation, and to evaluate the role of NF-κB in protecting tumor cells from MDA-7 induced apoptosis."}}, "data": [{"compound": "CN[C@@H]1C[C@H]2O[C@@](C)([C@@H]1OC)n1c3ccccc3c3c4c(c5c6ccccc6n2c5c31)C(=O)NC4", "note": "[staurosporine]", "values": [{"measurement": "MMP changes and apoptosis", "setting": "H1299 and A549 cells; A549 cells", "value": "induces MMP changes and apoptosis"}, {"measurement": "MMP changes and apoptosis", "setting": "H1299 and A549 cells; H1299 cells", "value": "able to induce MMP changes and the induction of apoptosis"}]}, {"compound": "Nc1ncc2[nH]cnc2n1.O=[N+]([O-])O", "note": "[2-AP, 2-Aminopurine Nitrate Salt]", "values": [{"measurement": "PKR and eIF-2α phosphorylation in Ad-mda7 treated cells", "setting": "PKR", "value": "attenuated PKR activation with inhibition of both PKR and eIF-2α phosphorylation"}, {"measurement": "apoptosis induction and cell killing in cells treated with Ad-mda7", "setting": "[1]", "value": "blocked apoptosis induction and cell killing in a dose dependent manner"}, {"measurement": "protein synthesis in Ad-mda7 treated cells", "setting": "[2]", "value": "reversal of eIF-2α protein synthesis inhibition"}, {"measurement": "cell viability", "setting": "[3]", "value": "no effect on cell viability"}]}, {"compound": "C[C@H]1CCC/C=C/[C@@H]2C[C@H](O)C[C@H]2[C@H](O)/C=C/C(=O)O1", "note": "[brefeldin A]", "values": [{"measurement": "concentration that completely blocks secretion of MDA-7 protein", "setting": "H1299 cells", "value": "less than 1 μg/ml"}]}, {"compound": "endostatin [reference compound]", "values": [{"measurement": "inhibition of endothelial tube formation", "setting": "HUVEC and HMVEC cells", "value": "the inhibitory effect by endostatin was not observed"}]}, {"compound": "tunicamycin", "values": [{"measurement": "cell death, inhibitor alone", "setting": "H1299 cells; 2 μg/ml tunicamycin, trypan blue", "value": "did not induce death"}, {"measurement": "concentration that completely blocks secretion of MDA-7 protein", "setting": "H1299 cells", "value": 2, "unit": "µg/mL"}]}, {"compound": "CC1=C(CC(=O)O)c2cc(F)ccc2/C1=C\\c1ccc([S+](C)[O-])cc1", "note": "(stereo not drawn) [Sulindac]", "values": [{"measurement": "TNF-mediated NF-κB activation", "setting": "NF-κB", "value": "inhibited TNF-mediated NF-κB activation in a dose-dependent manner"}, {"measurement": "activation of the NF-κB pathway", "setting": "NF-κB", "value": "inhibited the activation of the NF-κB pathway"}]}]}
